Measured values taken from paper PMC10165273, “Itch receptor MRGPRX4 interacts with the receptor activity–modifying proteins” (The Journal of Biological Chemistry, 2023).
Several values for one entry are separate records, joined by “and”; a condition that tells them apart may be missing. Equal values may be shown once. Read-outs that look alike come from different tables or passages of the source.

Target: T1, MRGPRX4 + RAMP3 (Homo sapiens, UniProt Q96LA9)
T1 construct: expressed in transfected cells; host or cells: HEK293T
T1 sequence (Q96LA9 whole entry): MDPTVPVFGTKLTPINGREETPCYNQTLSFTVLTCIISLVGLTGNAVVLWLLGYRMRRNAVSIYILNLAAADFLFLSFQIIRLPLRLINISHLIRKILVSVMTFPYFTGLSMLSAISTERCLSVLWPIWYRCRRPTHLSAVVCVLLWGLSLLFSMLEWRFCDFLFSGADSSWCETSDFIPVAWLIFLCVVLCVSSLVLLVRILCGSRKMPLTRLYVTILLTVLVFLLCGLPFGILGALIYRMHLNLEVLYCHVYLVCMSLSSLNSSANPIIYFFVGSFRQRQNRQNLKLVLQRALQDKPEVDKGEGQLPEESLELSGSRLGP
Assay: IP1 accumulation, MRGPRX4 coexpressed with RAMP3
Format: cell-based
Conditions: for activation at 100 µM / activation at 20 µM / activation at 4 µM / activation at 0.8 µM / activation at […] / activation at 0.032 µM: 2 h; for EC50: Figure 4a top, individual replicates, read-out: potency (converted)
Procedure: HEK293T cells were transfected with 1 pg/cell of MRGPRX4 DNA, and the amount of DNA was kept constant at 2 pg/cell with pcDNA3.1(+) empty vector, unless otherwise specified. Twenty four hours after transfection, IP1 assay was performed as previously described ([51]). When applicable, cells were treated with 1 μM YM254890 (YM) or different concentrations of U73122 for 1 h prior to addition of agonist or buffer. After incubation for 2 h, HTRF reagents and IP1 calibration standards were added and incubated for 2 h in the dark at room temperature. Time-resolved fluorescence signals were read on the BioTek Synergy NEO-TRF Hybrid multi-mode reader (BioTek Instruments). All data were carried out in three independent experiments with three technical replicate each.
For RAMP DNA titration assay, HEK293T cells were cotransfected with a constant amount of 1 pg/cell of FLAG-MRGPRX4-GFP10-1D4 to which a serial dilution of 1, 0.75, 0.5, 0.25, or 0 pg/cell of each HA-RAMP-OLLAS was added. For a homogenous transfection of MRGPRX4, a master mix of MRGPRX4 DNA was made prior to addition of the RAMP DNA. […]
Data reduction, standard calibration, and transformation of HTRF data were performed as previously described ([51]). Normalized IP1 values were calculated relative to the unstimulated mock-transfected cells (set to 0%) and fully stimulated MRGPRX4 (alone if applicable) (set to 100%).

CC(C)[C@H]1CC[C@H](C(=O)N[C@H](Cc2ccccc2)C(=O)O)CC1 [Nateglinide]
activation at 100 µM (log [nateglinide] (M) -4, MRGPRX4+RAMP3 0.75pg 1:0.75, Supplementary Figure 5f, read-out: IP1 accumulation (normalized)): 80.5% | activation at 20 µM (log [nateglinide] (M) -4.69897, MRGPRX4+RAMP3 0.75pg 1:0.75, Supplementary Figure 5f, read-out: IP1 accumulation (normalized)): 75.4% | activation at 4 µM (log [nateglinide] (M) -5.39794, MRGPRX4+RAMP3 0.5pg 1:0.5, Supplementary Figure 5f, read-out: IP1 accumulation (normalized)): 44.2% | activation at 4 µM (log [nateglinide] (M) -5.39794, MRGPRX4+RAMP3 0.75pg 1:0.75, Supplementary Figure 5f, read-out: IP1 accumulation (normalized)): 36.8% | activation at 0.8 µM (log [nateglinide] (M) -6.09691, MRGPRX4+RAMP3 0.5pg 1:0.5, Supplementary Figure 5f, read-out: IP1 accumulation (normalized)): 21.5% | activation at 0.8 µM (log [nateglinide] (M) -6.09691, MRGPRX4+RAMP3 0.75pg 1:0.75, Supplementary Figure 5f, read-out: IP1 accumulation (normalized)): 14.8% | activation at 0.8 µM (log [nateglinide] (M) -6.09691, MRGPRX4+RAMP3 1pg 1:1, Supplementary Figure 5f, 5g, read-out: IP1 accumulation (normalized)): 20.8% | activation at […] (log [nateglinide] (M) -6.79588, MRGPRX4+RAMP3 0.5pg 1:0.5, Supplementary Figure 5f, read-out: IP1 accumulation (normalized)): 13.1% | activation at […] (log [nateglinide] (M) -6.79588, MRGPRX4+RAMP3 0.75pg 1:0.75, Supplementary Figure 5f, read-out: IP1 accumulation (normalized)): 12% | activation at 0.032 µM (log [nateglinide] (M) -7.49485, MRGPRX4+RAMP3 0.5pg 1:0.5, Supplementary Figure 5f, read-out: IP1 accumulation (normalized)): 12.9% | activation at 0.032 µM (log [nateglinide] (M) -7.49485, MRGPRX4+RAMP3 0.75pg 1:0.75, Supplementary Figure 5f, read-out: IP1 accumulation (normalized)): 9.2% | activation at 0.032 µM (log [nateglinide] (M) -7.49485, MRGPRX4+RAMP3 1pg 1:1, Supplementary Figure 5f, 5g, read-out: IP1 accumulation (normalized)): 13.1% | activation at 100 µM (ratio MRGPRX4:RAMP3 1:0.25, log [Nateglinide] (M) -4, Fig S3c, read-out: IP1 accumulation): 75.8% | activation at 20 µM (ratio MRGPRX4:RAMP3 1:0.25, log [Nateglinide] (M) -4.69897, Fig S3c, read-out: IP1 accumulation): 68.5% | activation at 4 µM (ratio MRGPRX4:RAMP3 1:0.25, log [Nateglinide] (M) -5.39794, Fig S3c, read-out: IP1 accumulation): 41% | activation at 0.8 µM (ratio MRGPRX4:RAMP3 1:0.25, log [Nateglinide] (M) -6.09691, Fig S3c, read-out: IP1 accumulation): 25.1% | activation at […] (ratio MRGPRX4:RAMP3 1:0.25, log [Nateglinide] (M) -6.79588, Fig S3c, read-out: IP1 accumulation): 23.1% | activation at 0.032 µM (ratio MRGPRX4:RAMP3 1:0.25, log [Nateglinide] (M) -7.49485, Fig S3c, read-out: IP1 accumulation): 21% | activation at 100 µM (ratio MRGPRX4:RAMP3 1:0.5, log [Nateglinide] (M) -4, Fig S3c, read-out: IP1 accumulation): 91% | activation at 20 µM (ratio MRGPRX4:RAMP3 1:0.5, log [Nateglinide] (M) -4.69897, Fig S3c, read-out: IP1 accumulation): 74.7% | activation at 4 µM (ratio MRGPRX4:RAMP3 1:0.5, log [Nateglinide] (M) -5.39794, Fig S3c, read-out: IP1 accumulation): 39.2% | activation at 0.8 µM (ratio MRGPRX4:RAMP3 1:0.5, log [Nateglinide] (M) -6.09691, Fig S3c, read-out: IP1 accumulation): 21.5% | activation at […] (ratio MRGPRX4:RAMP3 1:0.5, log [Nateglinide] (M) -6.79588, Fig S3c, read-out: IP1 accumulation): 16.2% | activation at 0.032 µM (ratio MRGPRX4:RAMP3 1:0.5, log [Nateglinide] (M) -7.49485, Fig S3c, read-out: IP1 accumulation): 16.8% | activation at 100 µM (ratio MRGPRX4:RAMP3 1:1, log [Nateglinide] (M) -4, Fig S3c, read-out: IP1 accumulation): 86.2% | activation at 20 µM (ratio MRGPRX4:RAMP3 1:1, log [Nateglinide] (M) -4.69897, Fig S3c, read-out: IP1 accumulation): 67.6% | activation at 4 µM (ratio MRGPRX4:RAMP3 1:1, log [Nateglinide] (M) -5.39794, Fig S3c, read-out: IP1 accumulation): 32.5% | activation at 0.8 µM (ratio MRGPRX4:RAMP3 1:1, log [Nateglinide] (M) -6.09691, Fig S3c, read-out: IP1 accumulation): 18.7% | activation at […] (ratio MRGPRX4:RAMP3 1:1, log [Nateglinide] (M) -6.79588, Fig S3c, read-out: IP1 accumulation): 15.5% | activation at 0.032 µM (ratio MRGPRX4:RAMP3 1:1, log [Nateglinide] (M) -7.49485, Fig S3c, read-out: IP1 accumulation): 13.9% | activation at 100 µM (ratio MRGPRX4:RAMP3 1:2, log [Nateglinide] (M) -4, Fig S3c, read-out: IP1 accumulation): 83.7% | activation at 4 µM (ratio MRGPRX4:RAMP3 1:2, log [Nateglinide] (M) -5.39794, Fig S3c, read-out: IP1 accumulation): 28.1% | activation at 0.8 µM (ratio MRGPRX4:RAMP3 1:2, log [Nateglinide] (M) -6.09691, Fig S3c, read-out: IP1 accumulation): 16.1% | activation at […] (ratio MRGPRX4:RAMP3 1:2, log [Nateglinide] (M) -6.79588, Fig S3c, read-out: IP1 accumulation): 14.2% | activation at 0.032 µM (ratio MRGPRX4:RAMP3 1:2, log [Nateglinide] (M) -7.49485, Fig S3c, read-out: IP1 accumulation): 12.5% | Emax (Figure 4a bottom, DNA ratio MRGPRX4:RAMP3 1:0.5, MRGPRX4 alone = 100, read-out: efficacy): 86.9% | EC50 (DNA ratio MRGPRX4:RAMP3 1:0.25): 11.8 µM and 9.51 µM and 7.13 µM | EC50 (DNA ratio MRGPRX4:RAMP3 1:0.5): 11.4 µM and 8.91 µM and 11.9 µM
